Each structure is given as a SMILES string. Activity calls are given as the source filed them. The rule behind the calls is not given here.

For one assay, the system named is HL-60. The experiment in a line: Induction of apoptosis in human HL60 cells assessed as DNA fragmentation at 80 uM after 6 hrs. It counts as functional, cell-based.
Conditions: not given
In the case of `CCO/N=C1\CC[C@]2(C)C3C(=O)C=C4[C@@H]5C[C@](C)(C(=O)O)CC[C@]5(C)CC[C@@]4(C)[C@]3(C)CC[C@H]2C1(C)C` (stereo partly drawn), the result was Active.
`CCCO/N=C1\CC[C@]2(C)C3C(=O)C=C4[C@@H]5C[C@](C)(C(=O)O)CC[C@]5(C)CC[C@@]4(C)[C@]3(C)CC[C@H]2C1(C)C` (stereo partly drawn): the result was Active.
With `CC1(C)[C@@H](O)CC[C@]2(C)C3C(=O)C=C4[C@@H]5C[C@](C)(C(=O)O)CC[C@]5(C)CC[C@@]4(C)[C@]3(C)CC[C@@H]12` (stereo partly drawn), the outcome was inactive.
Take `CO/N=C1\CC[C@]2(C)C3C(=O)C=C4[C@@H]5C[C@](C)(C(=O)O)CC[C@]5(C)CC[C@@]4(C)[C@]3(C)CC[C@H]2C1(C)C` (stereo partly drawn): the result was Active.

The subject of a further assay is HL-60. The experiment in a line: Induction of apoptosis in human HL60 cells at 80 uM after 6 hrs by fluorescence microscopy. It counts as functional.
Conditions: not given
On to `CCO/N=C1\CC[C@]2(C)C3C(=O)C=C4[C@@H]5C[C@](C)(C(=O)O)CC[C@]5(C)CC[C@@]4(C)[C@]3(C)CC[C@H]2C1(C)C` (stereo partly drawn), for which the Activity stood at 59.7%.
As for `CC(=O)O/N=C1\CC[C@]2(C)C3C(=O)C=C4[C@@H]5C[C@](C)(C(=O)O)CC[C@]5(C)CC[C@@]4(C)[C@]3(C)CC[C@H]2C1(C)C` (stereo partly drawn), the Activity came out at 19.1%.
Same read-out and setting: under `CCCO/N=C1\CC[C@]2(C)C3C(=O)C=C4[C@@H]5C[C@](C)(C(=O)OC)CC[C@]5(C)CC[C@@]4(C)[C@]3(C)CC[C@H]2C1(C)C` (stereo partly drawn) stands 4.9%; under `CCCO/N=C1\CC[C@]2(C)C3C(=O)C=C4[C@@H]5C[C@](C)(C(=O)O)CC[C@]5(C)CC[C@@]4(C)[C@]3(C)CC[C@H]2C1(C)C` (stereo partly drawn), 87.3%; under `CC1(C)[C@@H](O)CC[C@]2(C)C3C(=O)C=C4[C@@H]5C[C@](C)(C(=O)O)CC[C@]5(C)CC[C@@]4(C)[C@]3(C)CC[C@@H]12` (stereo partly drawn), 24.9%.
`CO/N=C1\CC[C@]2(C)C3C(=O)C=C4[C@@H]5C[C@](C)(C(=O)O)CC[C@]5(C)CC[C@@]4(C)[C@]3(C)CC[C@H]2C1(C)C` (stereo partly drawn) registered an Activity of 60.2%.
In turn, `CC1(C)C(=O)CC[C@]2(C)C3C(=O)C=C4[C@@H]5C[C@](C)(C(=O)O)CC[C@]5(C)CC[C@@]4(C)[C@]3(C)CC[C@@H]12` (stereo partly drawn) had an Activity of 28.5%.
`CCC(=O)O/N=C1\CC[C@]2(C)C3C(=O)C=C4[C@@H]5C[C@](C)(C(=O)O)CC[C@]5(C)CC[C@@]4(C)[C@]3(C)CC[C@H]2C1(C)C` (stereo partly drawn) had an Activity of 27.7%.
On to `CCO/N=C1\CC[C@]2(C)C3C(=O)C=C4[C@@H]5C[C@](C)(C(=O)OC)CC[C@]5(C)CC[C@@]4(C)[C@]3(C)CC[C@H]2C1(C)C` (stereo partly drawn), for which the Activity came out at 8.6%.
Turning to `CC1(C)/C(=N/O)CC[C@]2(C)C3C(=O)C=C4[C@@H]5C[C@](C)(C(=O)O)CC[C@]5(C)CC[C@@]4(C)[C@]3(C)CC[C@@H]12` (stereo partly drawn), the Activity was 24.5%.

Another assay deals with HL-60. The experiment in a line: Antiproliferative activity against human HL60 cells after 72 hrs. It counts as functional. To be noted: HL-60, 72 h.
As usually defined, the GI50 is the concentration that inhibits growth by half. A lower GI50 goes with greater sensitivity of the cells. `CCO/N=C1\CC[C@]2(C)C3C(=O)C=C4[C@@H]5C[C@](C)(C(=O)O)CC[C@]5(C)CC[C@@]4(C)[C@]3(C)CC[C@H]2C1(C)C` (stereo partly drawn) had a concentration for 50% growth inhibition (GI50) of 24.4 µM. That is a double-digit micromolar value.
With `CC(=O)O/N=C1\CC[C@]2(C)C3C(=O)C=C4[C@@H]5C[C@](C)(C(=O)O)CC[C@]5(C)CC[C@@]4(C)[C@]3(C)CC[C@H]2C1(C)C` (stereo partly drawn), growth was halved (GI50) at 58.8 µM.
Consider `CCCO/N=C1\CC[C@]2(C)C3C(=O)C=C4[C@@H]5C[C@](C)(C(=O)OC)CC[C@]5(C)CC[C@@]4(C)[C@]3(C)CC[C@H]2C1(C)C` (stereo partly drawn), for which the GI50 was found to be 19 µM.
On the same count and under the same terms, under `CCCO/N=C1\CC[C@]2(C)C3C(=O)C=C4[C@@H]5C[C@](C)(C(=O)O)CC[C@]5(C)CC[C@@]4(C)[C@]3(C)CC[C@H]2C1(C)C` (stereo partly drawn) stands 20.6 µM; under `CC1(C)[C@@H](O)CC[C@]2(C)C3C(=O)C=C4[C@@H]5C[C@](C)(C(=O)O)CC[C@]5(C)CC[C@@]4(C)[C@]3(C)CC[C@@H]12` (stereo partly drawn), 63.2 µM.
The same measure, in the same setting: the same measure for `CO/N=C1\CC[C@]2(C)C3C(=O)C=C4[C@@H]5C[C@](C)(C(=O)O)CC[C@]5(C)CC[C@@]4(C)[C@]3(C)CC[C@H]2C1(C)C` (stereo partly drawn): 36.1 µM; for `CC1(C)C(=O)CC[C@]2(C)C3C(=O)C=C4[C@@H]5C[C@](C)(C(=O)O)CC[C@]5(C)CC[C@@]4(C)[C@]3(C)CC[C@@H]12` (stereo partly drawn): 59.6 µM.
`CCC(=O)O/N=C1\CC[C@]2(C)C3C(=O)C=C4[C@@H]5C[C@](C)(C(=O)O)CC[C@]5(C)CC[C@@]4(C)[C@]3(C)CC[C@H]2C1(C)C` (stereo partly drawn) displayed a GI50 of 57.7 µM.
On the same count and under the same terms, under `CCO/N=C1\CC[C@]2(C)C3C(=O)C=C4[C@@H]5C[C@](C)(C(=O)OC)CC[C@]5(C)CC[C@@]4(C)[C@]3(C)CC[C@H]2C1(C)C` (stereo partly drawn) stands 19.1 µM; under `CC1(C)/C(=N/O)CC[C@]2(C)C3C(=O)C=C4[C@@H]5C[C@](C)(C(=O)O)CC[C@]5(C)CC[C@@]4(C)[C@]3(C)CC[C@@H]12` (stereo partly drawn), 63 µM.

The next assay relates to HL-60. The assay can be described thus: Induction of apoptosis in human HL60 cells assessed as accumulation of cells in subG1 phase at 80 uM after 6 hrs by FACS method. It counts as functional.
Conditions: not given
On the technique in general: Flow cytometry measures light scatter and fluorescence of single cells or particles in a stream.
For the compound `CCO/N=C1\CC[C@]2(C)C3C(=O)C=C4[C@@H]5C[C@](C)(C(=O)O)CC[C@]5(C)CC[C@@]4(C)[C@]3(C)CC[C@H]2C1(C)C` (stereo partly drawn), the Activity turned out to be 68.7%.
On the same count and under the same terms, the same measure for `CCCO/N=C1\CC[C@]2(C)C3C(=O)C=C4[C@@H]5C[C@](C)(C(=O)O)CC[C@]5(C)CC[C@@]4(C)[C@]3(C)CC[C@H]2C1(C)C` (stereo partly drawn): 80.3%; for `CC1(C)[C@@H](O)CC[C@]2(C)C3C(=O)C=C4[C@@H]5C[C@](C)(C(=O)O)CC[C@]5(C)CC[C@@]4(C)[C@]3(C)CC[C@@H]12` (stereo partly drawn): 12.7%; for `CO/N=C1\CC[C@]2(C)C3C(=O)C=C4[C@@H]5C[C@](C)(C(=O)O)CC[C@]5(C)CC[C@@]4(C)[C@]3(C)CC[C@H]2C1(C)C` (stereo partly drawn): 70.9%.
